{"source": "patent US6506580B1", "about": "“Splice variants for human 5-HT4 serotonin receptor and their applications, in particular for screening” (Institut National de la Sante et de la Recherche Medicale …, priority 1997, dated 2003)", "key": {"receptor 5-HT4(c) [1]": {"biological_target": "T1, receptor 5-HT4(c) (Homo sapiens, UniProt Q13639)", "T1 sequence (Q13639 1-380 isoform Q13639-4)": "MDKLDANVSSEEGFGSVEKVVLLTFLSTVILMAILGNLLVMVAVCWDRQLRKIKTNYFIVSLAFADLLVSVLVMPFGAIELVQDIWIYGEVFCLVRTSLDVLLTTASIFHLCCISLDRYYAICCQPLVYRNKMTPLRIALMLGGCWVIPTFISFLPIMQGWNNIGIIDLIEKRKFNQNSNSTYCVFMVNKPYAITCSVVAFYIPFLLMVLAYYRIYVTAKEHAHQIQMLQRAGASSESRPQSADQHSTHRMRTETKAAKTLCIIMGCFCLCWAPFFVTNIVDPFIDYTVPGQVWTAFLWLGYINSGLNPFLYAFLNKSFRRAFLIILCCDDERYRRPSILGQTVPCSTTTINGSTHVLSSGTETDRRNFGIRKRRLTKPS", "assay": "cAMP formation in transiently transfected COS-7 cells", "type": "cell-based", "design": "The entire coding region of the cDNAs of 5-HT4(a), 5-HT4(b), 5-HT4(c) and 5-T4(d) was subcloned; expressed in transfected cells; host or cells: COS-7 cells, transient, pRC/CMV vector; cDNA amplified from human brain and ileum RNA", "conditions": "for decrease of the basal cAMP values: 1 μM", "description": "(§1) The entire coding region of the cDNAs of 5-HT4(a), 5-HT4(b), 5-HT4(c) and 5-T4(d) was subcloned into a mammalian expression vector pRC/CMV (Invitrogen, Carlsbad, Calif.). The transfections were carried out using polyethyleneimine (PEI) as described in Boussif et al. (1995). The cells were transfected using a mixture of DNA and of PEI in a ratio of 20 μmol of PEI/mg of DNA in 0.9% NaCl. For the radioligand binding assays, the COS-7 cells were seeded into culture flasks of 1.5×10^4 mm^2 one day before the transfection, at a density of 1×10^7 cells/flask, incubated for six hours with plasmid DNA (150 μg/flask) and collected 48 hours after transfection. For the measurement of cAMP formation, the COS-7 cells were seeded onto twelve-well plates one day before transfection, at a density of 5×10^5 cells/well, incubated for six hours with plasmid DNA (4 to 8 μg/well according to the experiments) and assayed 24 hours after the transfection. The cells transfected with the receptor 5-HT4 cDNA constructs were compared with the “blank”-transfected cells, which were exposed to the unmodified pRC/CMV plasmid.\n(§2) To measure intracellular cAMP accumulation, the transiently transfected COS-7 cells were incubated, 24 hours after transfection, in Dulbecco's modified Eagle medium (DMEM) containing 5 mM theophylline, 10 mM HEPES and 10 μM pargyline for 15 minutes at 37° C., in the presence of 5% CO2. […] The reaction was stopped by aspiration of the medium and addition of 500 μl of ice-cold ethanol. After one hour at room temperature, the cells were scraped, and everything was collected and freeze-dried. The pellet was resuspended in 350 μl of PBS and centrifuged for 5 min at 300 g. The cAMP was quantified in the supernatant using a radioimmunological assay (E.R.I.A. assay kit from Pasteur Diagnostics 79830). Student's t tests were carried out using the program Quick TEst.\nML10375 is capable of reducing the cAMP levels in the cells expressing the 5-HT4(c) and 5-HT4(d) isoforms in the absence of any stimulation of the receptor by 5-HT4 agonists. To test the hypothesis that ML10375 may constitute a reverse agonist for the human receptor 5-HT4, the 5-HT4(c) isoform was overexpressed in COS-7 cells in order to increase the frequency of the spontaneously active state of the receptor. The COS-7 cells were transfected with 4 to 8 μg of plasmid DNA per well in order to obtain an increase in the expression levels of the receptor 5-HT4(c). […] (FIG. 6B)."}, "receptor 5-HT4(d)": {"biological_target": "receptor 5-HT4(d) (Homo sapiens, UniProt Q13639)", "sequence (Q13639 1-360 isoform Q13639-3)": "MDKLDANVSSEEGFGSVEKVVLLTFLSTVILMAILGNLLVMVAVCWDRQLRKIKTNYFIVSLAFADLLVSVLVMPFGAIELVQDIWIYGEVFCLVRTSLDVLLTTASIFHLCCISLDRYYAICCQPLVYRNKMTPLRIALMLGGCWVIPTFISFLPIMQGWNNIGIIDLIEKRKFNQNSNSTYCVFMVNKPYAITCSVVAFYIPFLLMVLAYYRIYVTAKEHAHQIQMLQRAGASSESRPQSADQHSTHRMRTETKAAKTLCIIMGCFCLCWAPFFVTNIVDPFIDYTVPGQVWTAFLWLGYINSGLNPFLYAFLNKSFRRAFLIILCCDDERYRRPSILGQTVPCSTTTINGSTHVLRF", "assay": "cAMP formation in transiently transfected COS-7 cells", "type": "cell-based", "design": "The entire coding region of the cDNAs of 5-HT4(a), 5-HT4(b), 5-HT4(c) and 5-T4(d) was subcloned; expressed in transfected cells; host or cells: COS-7 cells, transient, pRC/CMV vector; cDNA amplified from human brain and ileum RNA", "conditions": "COS-7, 1 μM, no agonist", "description": "The entire coding region of the cDNAs of 5-HT4(a), 5-HT4(b), 5-HT4(c) and 5-T4(d) was subcloned into a mammalian expression vector pRC/CMV (Invitrogen, Carlsbad, Calif.). The transfections were carried out using polyethyleneimine (PEI) as described in Boussif et al. (1995). The cells were transfected using a mixture of DNA and of PEI in a ratio of 20 μmol of PEI/mg of DNA in 0.9% NaCl. For the radioligand binding assays, the COS-7 cells were seeded into culture flasks of 1.5×10^4 mm^2 one day before the transfection, at a density of 1×10^7 cells/flask, incubated for six hours with plasmid DNA (150 μg/flask) and collected 48 hours after transfection. For the measurement of cAMP formation, the COS-7 cells were seeded onto twelve-well plates one day before transfection, at a density of 5×10^5 cells/well, incubated for six hours with plasmid DNA (4 to 8 μg/well according to the experiments) and assayed 24 hours after the transfection. […]\nTo measure intracellular cAMP accumulation, the transiently transfected COS-7 cells were incubated, 24 hours after transfection, in Dulbecco's modified Eagle medium (DMEM) containing 5 mM theophylline, 10 mM HEPES and 10 μM pargyline for 15 minutes at 37° C., in the presence of 5% CO2. […] The cAMP was quantified in the supernatant using a radioimmunological assay (E.R.I.A. assay kit from Pasteur Diagnostics 79830). […]"}, "[2]": {"system": "“blank”-transfected COS-7 cells", "assay": "cAMP formation in control COS-7 cells", "type": "cell-based", "conditions": "1 μM", "description": "as §1, §2"}, "receptor 5-HT4(c) [3]": {"biological_target": "T1, receptor 5-HT4(c)", "assay": "[3H]GR113808 radioligand binding, membranes of transiently transfected COS-7 cells", "design": "The entire coding region of the cDNAs of 5-HT4(a), 5-HT4(b), 5-HT4(c) and 5-T4(d) was subcloned; expressed in transfected cells; host or cells: COS-7 cells, transient, pRC/CMV vector; cDNA amplified from human brain and ileum RNA", "conditions": "read-out: Ki, competition for [3H]GR113808 binding", "description": "as §1\nEach flask of cells intended for the radioligand binding assays was washed twice with a phosphate buffer (PBS). The cells were then scraped, collected and centrifuged at 300 g for five minutes. The pellet was resuspended in 2.5 ml of ice-cold HEPES buffer (50 mM, pH 7.4) and homogenized with an Ultraturax tissue grinder. The lysate was then centrifuged at 40,000 g for 20 minutes at 4° C. The resulting pellet was resuspended in 15 volumes of HEPES buffer (50 mM, pH 7.4). The membrane preparations were maintained in ice and used within two hours for radioligand binding assays. The protein concentrations were determined by the method of Lowry et al., 1951, using bovine serum albumin as standard.\nThe saturation studies were performed using [^3H] GR113808 at 9 different concentrations ranging from 0.01 to 3.5 nM. The tubes were incubated at 25° C. for 30 minutes. The reaction-was stopped by rapid filtration, under vacuum, through Whatman GF/B filter paper using the Brandel 48R cell harvester. The filters were presoaked in a solution of PEI (0.1%) to reduce the binding to the filters. The filters were then washed with an ice-cold buffer (50 mM Tris-HCl, pH 7.4) and placed in 4 ml of “ready safe” scintillation cocktail (Beckman, Fullerton, Calif.) overnight. The radioactivity was measured using a Beckman LS 6500 C liquid scintillation counter. The binding data were analysed by computer-assisted nonlinear regression analysis (Graph Pad Prism Program, Graph Pad Software, Inc., San Diego, Calif.).\nThe experiments correspond to the competition of various compounds for [^3H]GR113808 binding to membranes of transiently transfected COS-7 cells. […] The estimations of affinity are given as Ki values in nM, and are determined from IC50 values obtained by computer-assisted nonlinear curve analysis (GraphPad, Prism Software). The Ki values are representative of at least two determinations."}}, "data": [{"compound": "COc1cc(N)c(Cl)cc1C(=O)OCCN1C[C@H](C)C[C@H](C)C1", "note": "[ML10375, 2-(cis-3,5-dimethyl-piperidino)ethyl 4-amino-5-chloro-2-methoxybenzoate]", "values": [{"measurement": "antagonism of the stimulatory effect of 5-HT (1 μM) on the basal cAMP", "setting": "receptor 5-HT4(c) [1]; 4 μg of plasmid DNA, preincubation with 1 μM", "result": "antagonized"}, {"measurement": "effect of PTX treatment on the ML10375-induced reduction in basal cAMP", "setting": "receptor 5-HT4(c) [1]; 6 μg of plasmid DNA, ML10375 1 μM, PTX 100 ng/ml, 16-hour preincubation", "result": "did not significantly modify"}, {"measurement": "decrease in the basal cAMP level in the presence of 1 μM 5-HT", "setting": "receptor 5-HT4(c) [1]; 8 μg of plasmid DNA, preincubation with 1 μM", "result": 47, "unit": "%"}, {"measurement": "reduction of the basal cAMP levels", "setting": "receptor 5-HT4(c) [1]; COS-7, 1 μM, no agonist", "result": 21, "unit": "%"}, {"measurement": "decrease of the basal cAMP values", "setting": "receptor 5-HT4(c) [1]; COS-7 transfected with 4 μg of plasmid DNA", "result": 24, "unit": "%"}, {"measurement": "decrease of the basal cAMP values", "setting": "receptor 5-HT4(c) [1]; COS-7 transfected with 8 μg of plasmid DNA", "result": 62, "unit": "%"}, {"measurement": "reduction of the basal cAMP levels", "setting": "receptor 5-HT4(d)", "result": 24, "unit": "%"}, {"measurement": "effect on basal adenylate cyclase activity / basal cAMP levels", "setting": "[2]", "result": "no significant effect"}, {"measurement": "Ki", "setting": "receptor 5-HT4(c) [3]", "result": "0.61 ± 0.08", "unit": "nM"}]}]}
